Where two headings read alike, the source gives them in different places.
Columns and labels:
Fmr1 knock-out mice = details: Lim et al. 2014; cited from earlier work
dopamine D2 receptors = details: in vivo; cited from earlier work
[1] = test system: ASD mouse models (prenatal valproate, Cntnap2 knockout, NR1 hypomorph, BTBR); details: several ASD mouse models, literature; cited from earlier work
ASD patients = details: cited from earlier work
[2] = test system: prenatally valproate-treated mice; details: Hara et al. 2017, cited from earlier work
dopamine D2 receptor [3] = biological target: T1, dopamine D2 receptor (Homo sapiens, UniProt P14416); details: cited from earlier work
T1 sequence (P14416 whole entry): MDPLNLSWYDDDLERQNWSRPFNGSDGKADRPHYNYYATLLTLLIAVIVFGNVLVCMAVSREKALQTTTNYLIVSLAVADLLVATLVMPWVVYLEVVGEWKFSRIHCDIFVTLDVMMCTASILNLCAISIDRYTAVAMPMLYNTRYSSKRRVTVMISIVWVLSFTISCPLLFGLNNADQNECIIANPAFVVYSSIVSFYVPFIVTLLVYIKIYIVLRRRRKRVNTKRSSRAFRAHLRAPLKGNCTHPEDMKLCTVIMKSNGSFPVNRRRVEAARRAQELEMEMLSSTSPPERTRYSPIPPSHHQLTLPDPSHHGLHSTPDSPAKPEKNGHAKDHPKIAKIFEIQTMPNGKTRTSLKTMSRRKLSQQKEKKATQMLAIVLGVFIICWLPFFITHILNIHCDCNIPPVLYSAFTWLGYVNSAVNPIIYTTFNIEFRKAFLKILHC

[4] = biological target: T2, serotonin 5-HT1A receptor (Homo sapiens, UniProt P08908); details: literature; cited from earlier work
T2 sequence (P08908 1-422): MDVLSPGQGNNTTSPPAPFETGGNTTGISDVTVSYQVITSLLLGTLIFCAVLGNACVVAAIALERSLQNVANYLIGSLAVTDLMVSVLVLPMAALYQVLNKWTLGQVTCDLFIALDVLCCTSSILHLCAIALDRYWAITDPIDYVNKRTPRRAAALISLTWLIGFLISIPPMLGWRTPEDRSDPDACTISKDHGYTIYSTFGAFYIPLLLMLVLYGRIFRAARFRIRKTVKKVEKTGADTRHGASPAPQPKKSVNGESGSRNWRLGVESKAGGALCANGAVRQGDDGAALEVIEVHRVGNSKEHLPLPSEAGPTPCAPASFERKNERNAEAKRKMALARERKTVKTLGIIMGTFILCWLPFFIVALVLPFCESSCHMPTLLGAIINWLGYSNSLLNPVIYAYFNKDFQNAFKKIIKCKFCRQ

[5] = biological target: T3, serotonin 5-HT2B receptor (Homo sapiens, UniProt P41595); details: literature; cited from earlier work
T3 sequence (P41595 whole entry): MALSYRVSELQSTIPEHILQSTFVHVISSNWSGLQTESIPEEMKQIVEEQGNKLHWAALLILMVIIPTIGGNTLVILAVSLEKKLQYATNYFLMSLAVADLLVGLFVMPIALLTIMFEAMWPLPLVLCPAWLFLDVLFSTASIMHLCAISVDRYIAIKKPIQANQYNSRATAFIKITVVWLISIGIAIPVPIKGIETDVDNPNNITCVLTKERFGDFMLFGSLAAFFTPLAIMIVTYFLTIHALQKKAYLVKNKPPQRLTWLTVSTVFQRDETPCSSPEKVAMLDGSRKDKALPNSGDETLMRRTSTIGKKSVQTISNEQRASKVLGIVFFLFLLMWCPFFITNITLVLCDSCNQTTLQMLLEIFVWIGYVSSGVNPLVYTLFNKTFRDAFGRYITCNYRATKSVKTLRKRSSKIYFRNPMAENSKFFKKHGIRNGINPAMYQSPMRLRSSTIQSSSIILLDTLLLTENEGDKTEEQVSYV

[6] = biological target: T3, serotonin 5-HT2B receptor; details: in vitro, literature; cited from earlier work
[7] = biological target: T2, serotonin 5-HT1A receptor; details: in vitro, literature; cited from earlier work
dopamine D2 receptor [8] = biological target: T1, dopamine D2 receptor; assay: functional activity at dopamine D2 receptor; type: biochemical; details: Compound 2, company data
[9] = biological target: T3, serotonin 5-HT2B receptor; assay: functional activity at serotonin 5-HT2B receptor; type: biochemical; details: Compound 2, company data
[10] = biological target: T2, serotonin 5-HT1A receptor; details: Compound 2, company data

CC(N)Cc1c[nH]c2ccc(OCc3cccs3)cc12 (centres unmarked) [BW723C86]
effect on cognitive abilities (Fmr1 knock-out mice): improvement of cognitive abilities

Cc1nc2n(c(=O)c1CCN1CCC(c3noc4cc(F)ccc34)CC1)CCCC2 [risperidone]
occupancy of dopamine D2 receptors (dopamine D2 receptors): occupy dopamine D2 receptors | effect on social behavior deficits [1]: neither aripiprazole nor risperidone could improve | effect on core symptoms (ASD patients; children with pervasive developmental disorders with high baseline irritability): modest improvements | effect on core behavioral deficits ([2]; acute treatment): without effect | effect on core behavioral deficits ([2]; chronic administration): improved core behavioral deficits

CN(C)C(=O)N[C@H]1CC[C@H](CCN2CCN(c3cccc(Cl)c3Cl)CC2)CC1 [cariprazine, trans-N-[4-[2-[4-(2,3-dichlorophenyl)piperazin-1-yl]ethyl]cyclohexyl]-N′,N′-dimethylurea]
functional character at dopamine D2 receptor (dopamine D2 receptor [3]): partial agonist | functional character at serotonin 5-HT1A receptor [4]: weak partial agonists | intrinsic activity at serotonin 5-HT1A receptor [4]: 38% | functional character at serotonin 5-HT2B receptor [5]: full antagonist

O=C1CCc2ccc(OCCCCN3CCN(c4cccc(Cl)c4Cl)CC3)cc2N1 [aripiprazole]
functional character at serotonin 5-HT1A receptor [4]: partial agonist | effect on social behavior deficits [1]: neither aripiprazole nor risperidone could improve | lethargy/social withdrawal subscale of the Aberrant Behavioral Checklist (ASD patients; open label trials): did not improve | effect on core behavioral deficits ([2]; acute treatment): without effect | effect on core behavioral deficits ([2]; chronic administration): improved core behavioral deficits | affinity for 5-HT2B receptor (in words) [6]: high affinity | affinity for 5-HT1A receptor (in words) [7]: high affinity

O=C(N[C@H]1CC[C@H](CCN2CCN(c3cccc(Cl)c3Cl)CC2)CC1)N1CCOCC1 [Compound 2, trans-N-(4-{2-[4-(2,3-dichloro-phenyl)-piperazine-1-yl]-ethyl}-cyclohexyl)-morpholine-4 carboxamide]
functional character at dopamine D2 receptor (dopamine D2 receptor [8]): partial agonist | functional character at serotonin 5-HT2B receptor [9]: full antagonist | functional character at serotonin 5-HT1A receptor [10]: weak partial agonists

— patent US11547707B2, “Carbamoyl cyclohexane derivatives for treating autism spectrum disorder” (Richter Gedeon Nyrt., priority 2019, dated 2023)
